Literature values, collected in patent US20150366978A1, “Compositions Containing Chondroitin Sulphate, Proteolytic Enzymes and Sulphydryl Compounds for Improving the Bioavailability of Chondroitin Sulphate” (GNOSIS S.P.A., priority 2013, published 2015).
Each block holds one substance with its values, some of them ahead of it.

Key:
[1] = oral

total uptake of CS by the intestinal mucosa ([1]; including oligosaccharides, % of the polysaccharide ingested): 20-23%
Substance: chondroitin sulphate [CS]

absorption of high-molecular-weight CS ([1]; absorbed as intact polysaccharide): 1-5%
Substance: chondroitin sulphate [high-molecular-weight CS]

Substance: bromelain
oral bioavailability: around 40%
